Laboratory results taken from ChEMBL document CHEMBL4342474, “Scaffold and Parasite Hopping: Discovery of New Protozoal Proliferation Inhibitors” (ACS Med Chem Lett, 2020).
≈ marks a conversion by molar mass, not a printed value. Calls of active or inactive are those of the source. The calls are words filed in the database; no cut-off is given here.

What was measured:
[1] = system: Trypanosoma cruzi; experiment: Antitrypanosomal activity against Trypanosoma cruzi CaI-72 trypomastigotes infected in mouse C2C12 cells measured after 72 hrs by DAPI staining based assay; format: functional, organism-based; details: CaI-72, C2C12, 72 h
[2] = Selectivity index, ratio of TC50 for mouse C2C12 cells to EC50 for antitrypanosomal activity against Trypanosoma cruzi CaI-72 trypomastigotes infected in mouse C2C12 cells; format: toxicity, cell-based
[3] = system: Leishmania major; experiment: Antileishmanial activity against Leishmania major amastigotes infected in mouse RAW 264.7 cells by luciferase reporter gene assay; format: functional, organism-based; details: RAW264.7
[4] = system: Plasmodium falciparum; experiment: Antiplasmodial activity against Plasmodium falciparum D6 measured after 72 hrs by SYBR green fluorescence dye based microplate reader analysis; format: functional, organism-based; details: D6, 72 h
[5] = Selectivity index, ratio of TC50 for human HepG2 cells to EC50 for antiplasmodial activity against Plasmodium falciparum D6; format: toxicity
[6] = system: Trypanosoma cruzi; experiment: Antitrypanosomal activity against Trypanosoma cruzi Tulahuen trypomastigotes infected in mouse NIH/3T3 cells measured after 96 hrs by beta-galactosidase reporter gene assay; format: functional, organism-based; details: NIH3T3, 96 h
[7] = system: Leishmania donovani; experiment: Antileishmanial activity against Leishmania donovani infected in mouse B10R cells after 72 hrs by DAPI staining based assay; format: functional, organism-based
[8] = Selectivity index, ratio of TC50 for human HepG2 cells to EC50 for antileishmanial activity against Leishmania major amastigotes infected in mouse RAW 264.7 cells; format: toxicity, cell-based
[9] = Intrinsic clearance in human liver microsomes assessed as per mg protein; format: ADME, Microsome
[10] = Intrinsic clearance in rat hepatocytes assessed as per million cells; format: ADME, cell-based, Hepatocyte; details: read-out: CLH
[11] = system: Leishmania donovani; experiment: Antileishmanial activity against Leishmania donovani promastigotes infected in BALB/c mouse assessed as effect on parasitemia at 50 mg/kg bid for 14 days and measured after 5 weeks post infection; format: functional, organism-based
[12] = Aqueous solubility of compound at pH 7.4; format: physicochemical; details: aqueous solution, read-out: solubility
[13] = Selectivity index, ratio of TC50 for mouse B10R cells to EC50 for antileishmanial activity against Leishmania donovani infected in mouse B10R cells; format: toxicity, cell-based
[14] = Protein binding in human plasma; format: ADME, cell-free; details: read-out: PPB (converted)
[15] = Cytotoxicity against human HepG2 cells assessed as reduction in cell viability; format: cell-based; details: read-out: TC50 (the source's name)

Compound | EC50 [1] [nM] | EC50 [3] [nM] | EC50 [4] [nM] | EC50 [7] [nM] | selectivity ratio [2] | selectivity ratio [5] | selectivity ratio [8] | also measured
CN1CC2(CCN(c3ncc(-c4ccc5c(Nc6cnccn6)ccnc5c4)cn3)C2)C1 | 220 | > 24000 | 58 | – | 1.9 | > 414 | – | –
CN1CCN(c2ccnc(Nc3ccc4c(Nc5cnccn5)ccnc4c3)n2)CC1 | – | – | 54 | – | – | – | – | EC50 [6]: > 20000 nM
CN1CCN(c2ncc(-c3ccc4c(N[C@@H]5CCCC[C@H]5O)ccnc4c3)cn2)CC1 | > 10000 | > 2400 | 37 | > 10000 | – | – | – | –
CN1CCCN(c2ncc(-c3ccc4c(Nc5ccccn5)ccnc4c3)cn2)CC1 | 1300 | > 24000 | 39 | > 10000 | 7.5 | 487 | – | –
COc1ccc(NC(=O)c2cc(F)c(N3CCCN(C)CC3)cc2F)cc1Cl | 5500 | > 24000 | 4600 | – | 1.6 | > 5.2 | – | –
CN1CCN(c2ncc(-c3ccc4c(NC5CCC(N(C)C)CC5)ccnc4c3)cn2)CC1 (stereo unspecified) | > 10000 | > 2200 | 53 | > 10000 | – | – | – | –
CN1CCCN(c2ncc(-c3ccc4/c(=N/c5cnccn5)ccn(C)c4c3)cn2)CC1 | 10000 | – | 120 | 20 | – | – | – | CLH ([9]; microsomes): 22 µL/min; hepatocyte CLint [10]: 13 µL/min/1e6 cells; Activity [11]: inactive
CN1CCCN(c2ncc(-c3ccc(C(=O)Nc4cccc(Cl)c4F)c(O)c3)cn2)CC1 | 3900 | > 2200 | 71 | – | 1.6 | > 310 | – | –
CN1CCCN(c2ncc(-c3ccc4c(c3)ncc3c5ccccc5[nH]c43)cn2)CC1 | 240 | > 5000 | 46 | – | 6.7 | > 161 | – | –
CN1CCN(c2ccc(Nc3ccc4c(Nc5cnccn5)ccnc4c3)cc2)CC1 | – | 7900 | 130 | – | – | – | – | –
CN1CCN(c2ccc(-c3ccc4c(Nc5cnccn5)ccnc4c3)cc2)CC1 | – | > 23000 | 74 | – | – | – | – | EC50 [6]: 6100 nM
Cc1ccc2[nH]c3c4ccc(-c5cnc(N6CCCN(C)CC6)nc5)cc4ncc3c2c1 | 210 | 440 | 37 | 640 | 2.4 | 127 | 10 | selectivity ratio [13]: 3.6
CN1CCCN(S(=O)(=O)c2ccc(-c3ccc4c(Nc5ccc(Cl)cn5)ccnc4c3)cc2)CC1 | 160 | 1300 | 51 | > 10000 | 21 | 35 | 1.4 | –
CS(=O)(=O)N1CCN(c2ncc(-c3ccc4c(Nc5cnccn5)ccnc4c3)cn2)CC1 | – | 730 | > 4300 | – | – | – | > 45 | EC50 [6]: 45000 nM; solubility [12]: 0.06 µM (≈ 0.0278 µg/mL); fraction unbound [14]: 0.05; microsomal CLint ([9]; liver microsomes, read-out: CLH): 44 µL/min/mg; hepatocyte CLint [10]: 28 µL/min/1e6 cells; CC50 [15]: > 33000 nM
CC(C)(C)OC(=O)N1CCN(c2ncc(-c3ccc4c(Nc5cnccn5)ccnc4c3)cn2)CC1 | – | 350 | 150 | – | – | > 207 | > 89 | EC50 [6]: > 50000 nM
CCn1cc/c(=N\c2cnccn2)c2ccc(-c3cnc(N4CCCN(C)CC4)nc3)cc21 | 3000 | 23000 | 170 | > 10000 | 1 | > 200 | > 1.5 | –
Cc1c(-c2cnc(N3CCN(C)CC3)nc2)ccc2c(Nc3cnccn3)ccnc12 | – | > 24000 | 69 | – | – | – | – | EC50 [6]: 25000 nM
CN1CCN(c2nccc(Nc3ccc4c(Nc5cnccn5)ccnc4c3)n2)CC1 | – | 3300 | 180 | – | – | – | – | EC50 [6]: > 50000 nM
c1cnc(Nc2ccnc3cc(-c4cnc(N5CCNCC5)nc4)ccc23)cn1 | – | > 5200 | 130 | – | – | > 300 | – | EC50 [6]: > 50000 nM
CCCn1cc/c(=N\c2cnccn2)c2ccc(-c3cnc(N4CCCN(C)CC4)nc3)cc21 | 2100 | 1500 | 87 | > 10000 | 1.4 | > 379 | > 22 | –
CN1C[C@H]2C[C@@H]1CN2c1ncc(-c2ccc3c(Nc4cnccn4)ccnc3c2)cn1 | 6100 | 2600 | 52 | – | – | – | – | –
COc1ccc(NC(=O)c2ccc(-c3cccc(N4CCOCC4)c3)cc2O)cc1Cl | > 10000 | 360 | > 23000 | > 10000 | – | – | > 97 | –
O=S(=O)(c1ccc(-c2ccc3nccc(NCCC4CCOCC4)c3c2)cc1)N1CCOCC1 | 4700 | > 21000 | 75 | > 10000 | 1.3 | > 280 | – | –
COc1ccc(NC(=O)c2ccc(-c3cnc(N4CCCN(C)CC4)nc3)cc2O)cc1Cl | > 10000 | > 4300 | 88 | > 10000 | – | – | – | –
CN1CCCN(S(=O)(=O)c2ccc(-c3ccc4c(Nc5ccc(OC(F)(F)F)cc5)ccnc4c3)cc2)CC1 | 130 | 220 | 140 | > 10000 | 40 | 11 | 7.3 | –
CN1CCN(c2ncc(Nc3ccc4c(Nc5cnccn5)ccnc4c3)cn2)CC1 | – | 1700 | 77 | – | – | 312 | 14 | EC50 [6]: 47000 nM
CN1CCN(c2ncc(-c3ccc4/c(=N/c5cnccn5)ccn(C)c4c3)cn2)CC1 | > 10000 | 2300 | 180 | > 10000 | – | 133 | > 10 | –
Cc1cc2c(Nc3cnccn3)ccnc2cc1-c1cnc(N2CCN(C)CC2)nc1 | – | 1800 | 180 | – | – | 33 | 3.3 | EC50 [6]: 22000 nM

These reach a lower EC50 [4]. Values come first.

EC50 [1] [nM] | EC50 [3] [nM] | EC50 [4] [nM] | EC50 [7] [nM] | Compound | selectivity ratio [2] | selectivity ratio [5] | selectivity ratio [8] | also measured
520 | > 23000 | 30 | – | CN1CCC2(CCN(c3ncc(-c4ccc5c(Nc6cnccn6)ccnc5c4)cn3)C2)C1 (stereo unspecified) | 19 | 533 | – | –
7600 | 4300 | 23 | – | CCCN1CCN(c2ncc(-c3ccc4c(Nc5cnccn5)ccnc4c3)cn2)CC1 | – | – | – | –
– | 9200 | 19 | – | Cc1cncc(Nc2ccnc3cc(-c4cnc(N5CCCN(C)CC5)nc4)ccc23)n1 | – | 947 | 2 | –
> 10000 | > 22000 | 25 | > 10000 | CN1CCCN(c2ncc(-c3ccc4c(Nc5cccnc5)ccnc4c3)cn2)CC1 | – | > 1320 | – | –
– | > 23000 | 24 | – | Cc1cnc(Nc2ccnc3cc(-c4cnc(N5CCCN(C)CC5)nc4)ccc23)cn1 | – | – | – | –
370 | 5500 | 10 | – | CN1CCCN(c2ccc(-c3ccc4c(Nc5cnccn5)ccnc4c3)cc2)CC1 | 1 | 960 | 1.7 | solubility [12]: 4.1 µM (≈ 1.68 µg/mL)
60 | 8200 | 6 | 85 | CN1CCCN(c2ncc(-c3ccc4c(Nc5ccc(OC(F)(F)F)cc5)ccnc4c3)cn2)CC1 | 38 | 233 | 0.8 | selectivity ratio [13]: 7.8
1900 | > 21000 | 30 | – | O=S(=O)(c1ccc(-c2ccc3nccc(NCCN4CCCC4)c3c2)cc1)N1CCOCC1 | 0.89 | 307 | – | –
30 | > 1500 | 18 | 23 | CN1CCN(c2ncc(-c3ccc4c(Nc5ccc(OCc6cccc(F)c6)c(Cl)c5)ccnc4c3)cn2)CC1 | 290 | 167 | – | selectivity ratio [13]: 1740; Activity [11]: inactive
80 | 1600 | 6 | > 10000 | COc1ccc(Nc2ccnc3cc(-c4cnc(N5CCCN(C)CC5)nc4)ccc23)cc1Cl | 12 | 1130 | 4.3 | –
1200 | > 24000 | 26 | 8700 | CN1CCN(c2ncc(-c3ccc4c(NCC5CCOCC5)ccnc4c3)cn2)CC1 | 3.2 | 615 | – | –
> 10000 | > 25000 | 25 | 4000 | CN1CCN(c2ncc(-c3ccc4c(NC5CCOCC5)ccnc4c3)cn2)CC1 | – | 600 | – | –
7700 | 24000 | 29 | – | CCN1CCN(c2ncc(-c3ccc4c(Nc5cnccn5)ccnc4c3)cn2)CC1 | – | – | – | –
2100 | > 24000 | 24 | > 10000 | CN1CCN(c2ncc(-c3ccc4c(NCCN5CCCC5)ccnc4c3)cn2)CC1 | – | – | – | –
1200 | 24000 | 24 | – | CN1CCCN(c2ncc(-c3ccc4c(Nc5cnccn5)ccnc4c3)cn2)CC1 | – | – | – | –
